The target of experiment [1] is T1, hTLR7 (Homo sapiens, UniProt Q9NYK1).
T1 construct: host or cells: HEK-Blue hTLR7 cells (HEK293-derived, own knowledge)
T1 sequence (Q9NYK1 27-1049): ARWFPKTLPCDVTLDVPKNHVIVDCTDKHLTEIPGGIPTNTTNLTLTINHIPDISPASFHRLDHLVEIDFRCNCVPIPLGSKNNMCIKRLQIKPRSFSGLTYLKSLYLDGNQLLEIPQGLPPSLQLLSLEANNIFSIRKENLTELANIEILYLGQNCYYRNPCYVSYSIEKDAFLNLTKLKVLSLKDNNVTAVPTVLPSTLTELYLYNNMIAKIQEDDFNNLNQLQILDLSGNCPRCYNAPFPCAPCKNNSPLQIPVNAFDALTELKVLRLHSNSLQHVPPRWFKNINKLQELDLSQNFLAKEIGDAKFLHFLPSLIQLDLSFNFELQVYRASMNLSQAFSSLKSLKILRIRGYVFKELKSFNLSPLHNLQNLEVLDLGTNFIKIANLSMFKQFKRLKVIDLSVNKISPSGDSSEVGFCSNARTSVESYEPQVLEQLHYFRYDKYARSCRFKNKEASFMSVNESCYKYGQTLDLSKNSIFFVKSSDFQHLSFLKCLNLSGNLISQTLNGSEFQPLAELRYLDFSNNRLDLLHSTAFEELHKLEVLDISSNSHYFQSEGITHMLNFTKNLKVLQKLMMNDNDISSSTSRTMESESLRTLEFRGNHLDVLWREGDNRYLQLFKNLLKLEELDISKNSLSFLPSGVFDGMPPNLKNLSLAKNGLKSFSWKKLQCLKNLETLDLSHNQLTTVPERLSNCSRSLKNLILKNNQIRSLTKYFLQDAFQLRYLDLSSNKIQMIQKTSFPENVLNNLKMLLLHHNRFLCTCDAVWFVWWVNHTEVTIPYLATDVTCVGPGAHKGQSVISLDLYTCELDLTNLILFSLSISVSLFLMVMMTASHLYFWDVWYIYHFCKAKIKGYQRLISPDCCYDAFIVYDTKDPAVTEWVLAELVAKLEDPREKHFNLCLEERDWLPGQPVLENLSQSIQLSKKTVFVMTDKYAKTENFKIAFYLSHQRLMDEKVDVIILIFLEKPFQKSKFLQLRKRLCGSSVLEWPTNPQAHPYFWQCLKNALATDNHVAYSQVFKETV
The experiment is described as follows: Human TLR7 Reporter Assay. The class given is cell-based. To be noted: HEK-Blue hTLR7 cells, 16 hours, normalized to CL097 (6 μM) and DMSO. As for the experimental part: (§1) HEK-Blue™ hTLR7 cells (Invivogen, San Diego, Calif.) were maintained at 37° C./5% CO2/90% relative humidity in Dulbecco's Modified Eagle's Medium with 10% fetal bovine serum, 100 units/mL penicillin, 100 μg/mL streptomycin, 100 μg/mL normocin, 10 μg/mL blasticidin, and 100 μg/mL zeocin. HEK-Blue™ hTLR7 cells were maintained at 10-90% confluence and used before passage 20. For this assay, test compounds were dissolved in DMSO, and 10-point serial 3-fold dilution series in DMSO were prepared in Echo Qualified 384-well Polypropylene Microplates (Labcyte, San Jose, Calif.). Assay plates (384-well flat, clear bottom, black polystyrene TC-treated microtiter plates; Corning, Corning, N.Y.) were prepared by dispensing 150 nL of test compounds, high control (CL097; Invivogen, San Diego, Calif.), and low control (DMSO) by ECHO acoustic dispenser (Labcyte, San Jose Calif.) followed by addition of 5 μL of HEK-Blue™ Detection assay media (Invivogen, San Diego, Calif.). HEK-Blue™ hTLR7 cells in HEK-Blue™ Detection assay media (20,000 cells per well in 45 μL of media) were added to the assay plate and incubated for 16 hours at 37° C./5% CO2/90% relative humidity. For detection, assay plates were removed from the incubator, allowed to cool to ambient temperature, centrifuged at 200×g for 1 minutes, and read with an EnSpire Multimode Plate Reader (Perkin Elmer, Waltham, Mass.) for absorbance at 620 nm. Test compound effects were normalized to the window defined by the controls, CL097 (6 μM), and DMSO. Calculated % effects were fit using a 4-parameter algorithm, and EC50 was reported.
Background: Reporter assays use an easily measured gene product as a stand-in for the process of interest.

Experiment [2] has as its target T2, hTLR8 (Homo sapiens, UniProt Q9NR97).
T2 construct: host or cells: HEK-Blue hTLR8 cells (HEK293-derived, own knowledge)
T2 sequence (Q9NR97 27-1041): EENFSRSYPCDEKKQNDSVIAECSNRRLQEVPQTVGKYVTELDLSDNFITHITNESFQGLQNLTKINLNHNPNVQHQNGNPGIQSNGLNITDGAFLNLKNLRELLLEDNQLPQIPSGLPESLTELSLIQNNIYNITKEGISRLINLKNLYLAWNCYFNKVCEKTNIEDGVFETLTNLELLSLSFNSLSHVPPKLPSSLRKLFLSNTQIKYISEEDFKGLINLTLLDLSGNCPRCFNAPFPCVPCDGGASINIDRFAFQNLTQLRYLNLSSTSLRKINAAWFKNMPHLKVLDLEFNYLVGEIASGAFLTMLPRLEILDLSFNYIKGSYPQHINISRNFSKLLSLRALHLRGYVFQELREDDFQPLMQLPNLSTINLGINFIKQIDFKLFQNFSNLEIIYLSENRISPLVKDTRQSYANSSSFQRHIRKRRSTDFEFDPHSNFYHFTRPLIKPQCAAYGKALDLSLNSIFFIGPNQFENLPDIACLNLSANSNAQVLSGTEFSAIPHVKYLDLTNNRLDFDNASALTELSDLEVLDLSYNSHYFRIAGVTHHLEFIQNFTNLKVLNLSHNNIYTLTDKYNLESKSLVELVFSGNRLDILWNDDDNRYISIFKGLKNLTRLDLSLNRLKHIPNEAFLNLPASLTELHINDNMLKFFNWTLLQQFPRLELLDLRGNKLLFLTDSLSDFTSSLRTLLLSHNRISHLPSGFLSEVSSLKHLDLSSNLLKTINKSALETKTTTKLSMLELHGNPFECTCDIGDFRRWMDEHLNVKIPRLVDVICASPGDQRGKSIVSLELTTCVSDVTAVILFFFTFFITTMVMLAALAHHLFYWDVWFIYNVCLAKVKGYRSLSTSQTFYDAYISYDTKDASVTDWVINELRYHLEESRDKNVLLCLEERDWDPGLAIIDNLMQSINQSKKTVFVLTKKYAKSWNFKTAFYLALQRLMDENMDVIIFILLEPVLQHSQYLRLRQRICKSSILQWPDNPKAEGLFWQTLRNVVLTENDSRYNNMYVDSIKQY
The experiment is described as follows: Human TLR8 Reporter Assay. Conditions: HEK-Blue hTLR8 cells, 16 hours, normalized to tl8-506 (1 μM) and DMSO. It counts as cell-based. As for the experimental part:
as §1, with “hTLR8” for “hTLR7”, “(tl8-506;” for “(CL097;”, “tl8-506 (1” for “CL097 (6”

These results are taken from US20230219962A1, “PYRAZOLO[4,3-d]PYRIMIDINE DERIVATIVES AND METHODS OF USE THEREOF FOR THE TREATMENT OF CELLULAR PROLIFERATIVE DISORDERS” (Merck Sharp & Dohme LLC, priority 2020, published 2023).

The structures appear in SMILES notation.

One may read the EC50 as the concentration that produces a half-maximal response. A low value points to higher potency in that assay. Consider `COCCNc1nc(N)nc2cn(Cc3c(OC)cccc3OC)nc12` [Compound 46], for which the EC50 is 353 nM in experiment [1] and 1080 nM in experiment [2].
For `COc1cccc(OC)c1Cn1cc2nc(N)nc(NCCCO)c2n1` [Compound 47], in that order: 8590 nM and > 29900 nM.
On to `COc1cccc(OC)c1Cn1cc2nc(N)nc(NCC(C)O)c2n1` (stereo not shown) [Compound 48], for which the EC50 was 7720 nM in experiment [1] and > 29900 nM in experiment [2].
Regarding `COc1cccc(OC)c1Cn1cc2nc(N)nc(NCC(C)O)c2n1` (stereo not shown) [Compound 49], the EC50 in experiment [1] is 7290 nM; in experiment [2] it was > 29900 nM.
The like results for `COc1cccc(OC)c1Cn1cc2nc(N)nc(NCC(C)C)c2n1` [Compound 50] were, in that order, 843 nM and > 29900 nM.
The like results for `COc1cccc(OC)c1Cn1cc2nc(N)nc(NCCC(C)O)c2n1` (stereo not shown) [Compound 51] were, in that order, 4730 nM and > 29900 nM.
The like results for `COc1cccc(OC)c1Cn1cc2nc(N)nc(NCCC(C)O)c2n1` (stereo not shown) [Compound 52] were, in that order, 2800 nM and > 29900 nM.
Regarding `COc1cccc(OC)c1Cn1cc2nc(N)nc(NCCC(C)C)c2n1` [Compound 53], the EC50 in experiment [1] was 858 nM; in experiment [2], > 29900 nM.
`COc1cccc(OC)c1Cn1cc2nc(N)nc(NCCCC(C)C)c2n1` [Compound 54]: the EC50 was 496 nM in experiment [1] and > 29900 nM in experiment [2].
For `CCC(C)CNc1nc(N)nc2cn(Cc3c(OC)cccc3OC)nc12` (stereo not shown) [Compound 56], in that order: 369 nM and > 9980 nM.
`CCCCNc1nc(N)nc2cn(Cc3ccc(N4CCNCC4)cc3OC)nc12` [Compound 58]: the EC50 turned out to be 228 nM in experiment [1] and 345 nM in experiment [2].
For the compound `CCCCNc1nc(N)nc2cn(Cc3cc(N4CCNCC4)ccc3OC)nc12` [Compound 59], the results for the EC50 in experiment [1] and in experiment [2] were 964 nM and 2640 nM, respectively.
For `CCCCNc1nc(N)nc2cn(Cc3ccc(CN4CCNCC4)cc3OC)nc12` [Compound 61], in that order: 344 nM and 438 nM.
Consider `CCCCNc1nc(N)nc2cn(Cc3c(OC)cc(CN4CCNCC4)cc3OC)nc12` [Compound 62], for which the EC50 in experiment [1] came to 840 nM; in experiment [2], 1490 nM.
With `CCCCNc1nc(N)nc2cnn(Cc3c(OC)cc(CN4CCNCC4)cc3OC)c12` [Compound 63], the EC50 in experiment [1] is 50.8 nM; in experiment [2], 2410 nM.
For `CCCCNc1nc(N)nc2cn(Cc3c(OC)cc(N4CCNCC4)cc3OC)nc12` [Compound 64], in that order: 518 nM and 348 nM.
Regarding `CCCCNc1nc(N)nc2cn(Cc3c(OC)cc(N)cc3OC)nc12` [Compound 65], the results for the EC50 in experiment [1] and in experiment [2] were 119 nM and 1020 nM, respectively.
For `CCCCNc1nc(N)nc2cn(Cc3c(OC)cc(CN)cc3OC)nc12` [Compound 66], in that order: 493 nM and 199 nM.
For `CCCCNc1nc(N)nc2cn(Cc3c(OC)cc(CCN)cc3OC)nc12` [Compound 67], in that order: 281 nM and 392 nM.
The like results for `CCCCNc1nc(N)nc2cn(Cc3ccc(N4CCN(C(=O)C5CCC(CN6C(=O)C=CC6=O)CC5)CC4)cc3OC)nc12` (stereo not shown) [Compound 68] were, in that order, 190 nM and 3640 nM.
Consider `CCCCNc1nc(N)nc2cn(Cc3ccc(CN4CCN(C(=O)C5CCC(CN6C(=O)C=CC6=O)CC5)CC4)cc3OC)nc12` (stereo not shown) [Compound 69], for which the EC50 in experiment [1] stood at 243 nM; in experiment [2], 1490 nM.
Turning to `CCCCNc1nc(N)nc2cn(Cc3cc(N4CCN(C(=O)C5CCC(CN6C(=O)C=CC6=O)CC5)CC4)ccc3OC)nc12` (stereo not shown) [Compound 70], the EC50 in experiment [1] was > 1110 nM; in experiment [2], 908 nM.
The like results for `CCCCNc1nc(N)nc2cn(Cc3cc(CN4CCN(C(=O)C5CCC(CN6C(=O)C=CC6=O)CC5)CC4)ccc3OC)nc12` (stereo not shown) [Compound 71] were, in that order, 267 nM and 3040 nM.
For `CCCCNc1nc(N)nc2cn(Cc3c(OC)cc(CNC(=O)C4CCC(CN5C(=O)C=CC5=O)CC4)cc3OC)nc12` (stereo not shown) [Compound 72], in that order: 597 nM and > 29900 nM.
The like results for `CCCCNc1nc(N)nc2cn(Cc3c(OC)cc(CN4CCN(C(=O)C5CCC(CN6C(=O)C=CC6=O)CC5)CC4)cc3OC)nc12` (stereo not shown) [Compound 74] were, in that order, 3330 nM and > 29900 nM.
For `CCCCNc1nc(N)nc2cn(Cc3c(OC)ccc(CN)c3OC)nc12` [Compound 76], the results for the EC50 in experiment [1] and in experiment [2] were 3040 nM and 719 nM, respectively.
